Values joined by “and” are separate entries in the source; they are usually repeats but may differ in a detail not shown here. Equal entries are not always repeated. Where two headings read alike, the source gives them in different places.
Key:
[1] = test system: CCRF-CEM cells; experiment: Cytotoxicity / growth inhibition of CCRF-CEM leukemic cells
[2] = test system: CCRF-CEM/VBL100 cells; experiment: cells; settings: Homo sapiens
[3] = test system: CCRF-CEM/VM-1 cells; experiment: Cytotoxicity toward VM-26-resistant CCRF-CEM/VM-1 cells (mutated Topo II gene); format: cell-based, human; settings: Homo sapiens, CCRF-CEM
[4] = test system: CCRF-CEM cells; experiment: Intracellular accumulation of [3H]vinblastine in CCRF-CEM cells; format: cell-based, human; settings: 30 μM
Protocol: (§1) *Cells were preloaded with [^3 H]
(§2) times (or without wash) with 100 ml cold medium to remove extracellular
(§3) with or without a reverse prenyl compound or an MDRreversing agent. Cells
(§4) were then separated from radioactive medium by microfuge oillayer method.
(§5) Extracellular space counts carried down # by cells (^3 HInulin space
(§6) were subtracted from the total radioactive counts.

[5] = test system: CCRF-CEM/VLB-100 cells; experiment: Intracellular accumulation of [3H]vinblastine in CCRF-CEM/VLB-100 cells; format: cell-based, human; settings: 30 μM
Protocol: as §1, §2, §3, §4, §5, §6

[6] = test system: CCRF-CEM/VBL100 cells; settings: Table 5A, CCRF-CEM/VLB; * collaterally sensitive vs parent
[7] = Homo sapiens, Table 6, CCRF-CEM
[8] = Homo sapiens, read-out: IC50, mean ± spread, Table 5A, CCRF-CEM, mean
[9] = read-out: IC50, mean ± spread, Table 5A, CCRF-CEM/VLB, mean
[10] = Table 5A, CCRF-CEM/VM-1, read-out: IC50
[11] = Homo sapiens, Table 5A, single determinations
[12] = Homo sapiens, read-out: IC50 of reversing agent, Table 6B, CCRF-CEM
[13] = read-out: IC50 of reversing agent, Table 6B, CCRF-CEM/VBL
[14] = Table 5A, single determinations
[15] = Table 5A, CCRF-CEM/VLB, * collaterally sensitive vs parent

| SMILES | IC50 [1, 7] | IC50 [1, 8] | IC50 ([2]; Table 6, CCRF-CEM/VBL) | IC50 [2, 9] | IC50 [3, 10] | [3H]vinblastine accumulation ([4]; washed) | [3H]vinblastine accumulation ([4]; without wash) | [3H]vinblastine accumulation ([5]; washed) | [3H]vinblastine accumulation ([5]; without wash) | IC50 [1, 11] | IC50 [1, 12] | IC50 ([1]; Table 5A, single determinations, listed as DKP 14(B)) | IC50 [2, 13] | IC50 [3] | IC50 ([3]; read-out: IC50 of reversing agent) | IC50 [1, 14] | IC50 [2, 15] | IC50 ([3]; Table 6B, CCRF-CEM/VM-1, read-out: IC50 of reversing agent) | IC50 [6] |
| --- | --- | --- | --- | --- | --- | --- | --- | --- | --- | --- | --- | --- | --- | --- | --- | --- | --- | --- | --- |
| C=CC(C)(C)C12CC3C(=O)NC(C)C(=O)N3C1N(C(C)=O)c1ccccc12 (stereo not drawn) [5N-Ac-DKP 14(E), N-acetyldiketopiperazine] | 225 µM | 397 ± 171 µM | 541 µM | 344 ± 197 µM | 32.4 µM | 29.54 fmole/10^3 cells | 35.08 fmole/10^3 cells | 3.59 fmole/10^3 cells | 12.88 fmole/10^3 cells | – | – | – | – | – | – | – | – | – | – |
| C=CC(C)(C)C12CC3C(=O)NC(C)C(=O)N3C1Nc1ccccc12 (stereo not drawn) [Diketopiperazine 14(B), Diketopiperazine] | 148 µM | 132 ± 11.5 µM | 147 µM | 94.6 ± 40.8 µM | – | 28.51 fmole/10^3 cells | 35.84 fmole/10^3 cells | 3.33 fmole/10^3 cells | 10.81 fmole/10^3 cells | 143 µM | 143 µM | 120 µM | 135 µM | 178 µM | 178 µM | – | – | – | – |
| C=CC(C)(C)C12CC3C(=O)NC(C)C(=O)N3C1N(C(=O)C(F)(F)F)c1ccccc12 (stereo not drawn) [5N-F3 -Ac-DKP 14F(E), 5N-trifluoroacetyl diketopiperazine] | – | 32.2 ± 0.7 µM | – | – | 41 µM | 28.75 fmole/10^3 cells | 33.34 fmole/10^3 cells | 5.77 fmole/10^3 cells | 23.34 fmole/10^3 cells | 32.8 µM | 32.8 µM | – | 24.8 µM | – | – | 31.5 µM | 24.6 µM | 40.9 µM | – |
| C=CC(C)(C)C12CC3C(=O)N(C(=O)OC(C)(C)C)C(C)C(=O)N3C1Nc1ccccc12 (stereo not drawn) [Imide-BOC-DKP 14(C), imide-BOC diketopiperazine] | 88.7 µM | 204 ± 116 µM | 65.4 µM | 92.9 ± 27.3 µM | 205 µM | 30.29 fmole/10^3 cells | 35.56 fmole/10^3 cells | 6.10 fmole/10^3 cells | 25.44 fmole/10^3 cells | – | – | – | – | – | – | – | 65.4 µM | – | 120 µM |
| C=CC(C)(C)C12CC3c4nc5ccccc5c(=O)n4C(C)C(=O)N3C1N(C(=O)C(F)(F)F)c1ccccc12 (stereo not drawn) [5N F3 -Ac-Ard 3F, 5N-Tri-F Acetyl Ardeemin] | – | – | – | – | 52.6 µM | 28.44 fmole/10^3 cells | 34.01 fmole/10^3 cells | 7.28 fmole/10^3 cells | 32.68 fmole/10^3 cells | 37.5 µM | 37.6 µM | – | 17.2 µM | – | – | – | 17.2 µM | – | – |
| C=CC(C)(C)C12CC3C(=O)NCC(=O)N3C1N(C=O)c1ccccc12 (stereo not drawn) [5N-formyl-8-desMe-DKP] | – | – | – | – | – | – | – | – | – | 200 µM | – | – | – | – | – | – | 372 µM | – | – |
| C=CC(C)(C)C12CC3C(=O)N(C(C)=O)C(C)C(=O)N3C1Nc1ccccc12 (stereo not drawn) [Imide-Ac-DKP 14(A), imide acetate diketopiperazine] | 48.1 µM | 61 ± 13.1 µM | 39.7 µM | 38 ± 1.8 µM | 50 µM | 30.18 fmole/10^3 cells | 34.87 fmole/10^3 cells | 4.52 fmole/10^3 cells | 18.93 fmole/10^3 cells | 48.1 µM | – | – | – | – | – | 47.9 µM and 87 µM | 39.7 µM | – | 36.2 µM |
| C=CC(C)(C)C12CC3C(=O)NCC(=O)N3C1N(C(C)=O)c1ccccc12 (stereo not drawn) [5N-Ac-8-desMe-DKP, 5N-acetyl diketopiperazine] | – | 22.1 ± 0.7 µM | – | 19.9 ± 13 µM | – | – | – | – | – | 21.4 µM | – | – | – | 35.8 µM | – | 22.7 µM | – | – | – |
